Experimental data published in patent US20040162247A1, “Therapeutic agent or osteoporosis comprising an active ingredient of quercetin derivatives” (priority 2000, published 2004).

Columns and labels:
[1] = test system: ALP activity in osteoblasts (Saos-2); experiment: Alkaline phosphatase (ALP) activity in osteoblasts; format: cell-based, human; conditions: Saos-2, 3 days
Method: Since osteoblasts have cell specific alkaline phosphatase activity, the effect of quercetin of the invention on ALP activity in osteoblasts was evaluated as follows: the number of cells, concentration of tested agent, and culture condition were same as those used in MTT experiment of Example 1-2, and cells were harvested after 3 day-incubation. Genistein was used as a comparative agent. ALP activity was evaluated by analysing changes of OD at 405 nm result from hydrolysis of p-nitrophenylphosphate to p-nitrophenol and phosphate (see: Table 1).

[2] = test system: ovariectomized rats; experiment: Biochemical parameters in plasma of ovariectomized rats; format: in vivo, Female SD (Sprague-Dawley) rats
Method: (§1) When test agents were administered, for a certain period of time before and after administration, 1.5 ml of blood was sampled from tail vein using a catheter (B.D Co.: 24 G) and subjected to complete blood count (Coulter Co.: JT) and biochemical analyses of plasma (Crone Co.: Airon® 200). During autopsy, blood was sampled from caudal venae cavae and subjected to the analyses above. And then, each sample was frozen to store for measurement of trabecular bone area of femur and examination of internal organs.
Since blood reflects the condition of body, safety of quercetin in the body was evaluated by measuring biochemical parameters: that is, blood samples were obtained from the rat prior to operation, one week after operation, and 10 weeks after operation, and measured were levels of alkaline phosphatase (ALP), calcium, inorganic phosphate, blood urea nitrogen (BUN), creatinin, total cholesterol, HDL-cholesterol and LDL-cholesterol (see: Table 8).

[3] = test system: ovariectomized rats; experiment: Complete blood count in ovariectomized rats; format: in vivo, Female SD (Sprague-Dawley) rats
Method: as §1
Complete blood count which reflects the condition and abnormality of the body was measured to find out abnormality in test animals caused by administrtion of agents. That is, to find out changes in hematopoiesis of test rats, measured were red blood cell (RBC) count, concentration of hemoglobin (Hb) and hematocrit (Ht) of-blood samples obtained from the rats prior to operation and the rats 10 weeks after administrating agents following operation, and to find out changes in immune system such as inflammation and necrosis of tissues, measured were white blood cell count, lymphocyte count, monocyte count, and granulocyte count (see: Table 7).

[4] = test system: ovariectomized rats; experiment: Trabecular bone area of tibia in ovariectomized rats;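 as to Change Rate (%) of TBA of tibia, of control group: control group rats were ovariectomized and are not the sham group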; format: in vivo, Female SD (Sprague-Dawley) rats; conditions: OVX rats, 9 weeks i.p. (E2 1 μg/kg/day; quercetin, genistein 10 mg/kg/day); for Change Rate (%) of TBA of tibia, of control group: control group = 100
Method: (§2) Trabecular bone area (TBA) of lumbar and tibia removed from the rats of each group which was treated with various agents for 9 weeks were measured as follows: that is, using a digitalizer of quantitative image analysis system (Wild Leitz Co.), image of each trabecula was obtained on computer monitor by drawing a contour of the trabecula, and then, using a computer, calculated were average areas of trabeculae within a rectangle of 2×10^6 μm^2 area wherein the width is about ⅔ of the length of growth plate which located underneath of growth plate at proximity of tibia. Also, following the number of trabeculae within the rectangle were obtained, average area was multiplied by the number of trabeculae to obtain trabecular bone area of each sample bone, which was analyzed statistically (see: Table 5).

[5] = test system: human osteoblast-like cell line Saos-2; experiment: Cell proliferation of Saos-2 cells, MTT method; format: cell-based; conditions: Saos-2, 3 days
Method: Saos-2 cell line which has similar properties to osteoblasts was obtained from Korean Cell Line Bank affiliated to the Cancer Research Institute of School of Medicine, Seoul National University.
Saos-2 cells were seeded in a RPMI 1640 medium (Gibco BRL, U.S.A.) supplemented with 10% (v/v) FBS, 100 unit/ml penicillin, 100 gg/ml streptomycin and grown to form a monolayer in an incubator at 37° C. under an environment of 5% (v/v) CO2 and saturated humidity. The culture was fed with fresh medium 2 to 3 times a week and subcultured once a week using 0.25% (w/v) trypsin.
Saos-2 cells were distributed into a 96-well plate (20,000 cells/well) and quercetin in 1% DMSO was added to a final concentration of 10-2 to 10^−9 mg/ml, 6 wells per each concentration. As a control group, cells without quercetin were used, and as a comparative group, the cells treated with various concentrations of genistein, being studied as a therapeutic agent for osteoporosis, were used. Cells were grown in an incubator at 37° C. for 3 days and incubated 4 more hours under the same condition after adding MTT (3-[4,5-dimethylthiazol-2-yl]-2,5-diphenyltetrazolium bromide, Triazolyl Blue) to a concentration of 0.05 mg/ml. Then, purple colored for-mazan formed in proportion to the number of viable cells was dissolved in DMSO and measured OD at 550 nm employing ELISA reader.
Cell proliferation rate (%) was evaluated by calculating the ratio of the OD of quercetin added well to the OD of control well, wherein, average value of ODs from 6 wells treated with the same concentration of quercetin was employed (see: Table 1).
cell proliferation rate (%)={(average value of OD at 550 nm of quercetin-treated wells—average value of OD at 550 nm of empty wells)/average value of OD at 550 nm of control wells}×100

[6] = test system: ovariectomized rats; experiment: Trabecular bone area of lumbars in ovariectomized rats;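 as to Change Rate (%) of TBA of lumbars, of control group: control group rats were ovariectomized and are not the sham group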; format: in vivo, Female SD (Sprague-Dawley) rats; conditions: OVX rats, 9 weeks i.p. (E2 1 μg/kg/day; quercetin, genistein 10 mg/kg/day); for Change Rate (%) of TBA of lumbars, of control group: control group = 100
Method: as §2
TBAs of lumbars removed from the animal treated with test agents for 9 weeks were measured employing the same method above (see: Table 6).

[7] = 1 week after operation (start of administration)
[8] = 10 weeks after operation, 9 weeks i.p. (E2 1 μg/kg/day; quercetin, genistein 10 mg/kg/day)
[9] = after operation and drug administration (E2 1 μg/kg/day; quercetin, genistein 10 mg/kg/day i.p.)

- Concentration of ALP in plasma [2, 7]: 212.10 ± 17.92 U/dL
- Concentration of HDL-cholesterol in plasma [2, 7]: 35.26 ± 1.92 mg/dL
- Concentration of LDL-cholesterol in plasma [2, 7]: 60.47 ± 7.04 mg/dL
- Concentration of blood urea nitrogen (BUN) [2, 7]: 18.26 ± 0.94 mg/dL
- Concentration of calcium in plasma [2, 7]: 8.97 ± 0.29 mg/dL
- Concentration of creatinin in plasma [2, 7]: 0.64 ± 0.02 mg/dL
- Concentration of inorganic phosphate in plasma [2, 7]: 6.47 ± 0.16 mg/dL
- Concentration of total cholesterol in plasma [2, 7]: 91.56 ± 3.65 mg/dL
- Concentration of ALP in plasma [2, 8]: 127.14 ± 9.95^##$$ U/dL
- Concentration of HDL-cholesterol in plasma [2, 8]: 29.27 ± 1.98 mg/dL
- Concentration of LDL-cholesterol in plasma [2, 8]: 91.80 ± 6.57^##$$ mg/dL
- Concentration of blood urea nitrogen (BUN) [2, 8]: 18.31 ± 0.86 mg/dL
- Concentration of calcium in plasma [2, 8]: 10.44 ± 0.22^$ mg/dL
- Concentration of creatinin in plasma [2, 8]: 0.82 ± 0.04^##$ mg/dL
- Concentration of inorganic phosphate in plasma [2, 8]: 5.62 ± 0.25 mg/dL
- Concentration of total cholesterol in plasma [2, 8]: 121.07 ± 6.53 mg/dL
- Level of inorganic phosphate 10 weeks after operation versus prior to operation (in words) ([2]; OVX rats, 10 mg/kg/day i.p.): remarkably decreased
- Plasma ALP activity 10 weeks after operation versus prior to and one week after operation (in words) ([2]; OVX rats, 10 mg/kg/day i.p.): significant decrease of ALP activity
- Concentration of ALP in plasma ([2]; before operation (baseline)): 208.86 ± 19.72 U/dL
- Concentration of HDL-cholesterol in plasma ([2]; before operation (baseline)): 61.12 ± 3.57 mg/dL
- Concentration of LDL-cholesterol in plasma ([2]; before operation (baseline)): 24.39 ± 3.63 mg/dL
- Concentration of blood urea nitrogen (BUN) ([2]; before operation (baseline)): 16.82 ± 0.60 mg/dL
- Concentration of calcium in plasma ([2]; before operation (baseline)): 10.61 ± 0.49 mg/dL
- Concentration of creatinin in plasma ([2]; before operation (baseline)): 0.51 ± 0.04 mg/dL
- Concentration of inorganic phosphate in plasma ([2]; before operation (baseline)): 7.18 ± 0.48 mg/dL
- Concentration of total cholesterol in plasma ([2]; before operation (baseline)): 85.51 ± 5.45 mg/dL
- White blood cell count, before versus after operation (in words) ([3]; OVX rats after drug administration): did not show any changes
- Concentration of hemoglobin(Hb) [3, 9]: 14.70 ± 0.22 g/dL
- Granulocyte count [3, 9]: 2.38 ± 0.37 ×10^3 cells/μl
- Hematocrit(Ht) [3, 9]: 40.66 ± 0.56 %
- Lymphocyte count [3, 9]: 15.25 ± 3.21 ×10^3 cells/μl
- Monocyte count [3, 9]: 0.80 ± 0.19 ×10^3 cells/μl
- Red blood cell(RBC) count [3, 9]: 7.17 ± 0.13 ×10^6 cells/μl
- White blood cell count [3, 9]: 21.50 ± 2.53 ×10^3 cells/μl
- Concentration of hemoglobin(Hb) ([3]; before operation (baseline)): 15.82 ± 0.27 g/dL
- Granulocyte count ([3]; before operation (baseline)): 2.23 ± 0.10 ×10^3 cells/μl
- Hematocrit(Ht) ([3]; before operation (baseline)): 42.76 ± 0.65%
- Lymphocyte count ([3]; before operation (baseline)): 19.68 ± 4.52 ×10^3 cells/μl
- Monocyte count ([3]; before operation (baseline)): 0.77 ± 0.09 ×10^3 cells/μl
- Red blood cell(RBC) count ([3]; before operation (baseline)): 7.32 ± 0.13 ×10^6 cells/μl
- White blood cell count ([3]; before operation (baseline)): 27.30 ± 4.85 ×10^3 cells/μl
SMILES: O=c1c(-c2ccc(O)cc2)coc2cc(O)cc(O)c12 [Genistein, genistein]
- ALP activity (% of control group) ([1]; 1 × 10^−2 mg/ml): 62.3 ± 3.4 % of control group
- ALP activity (% of control group) ([1]; 1 × 10^−3 mg/ml): 98.8 ± 6.9 % of control group
- ALP activity (% of control group) ([1]; 1 × 10^−4 mg/ml): 121.1 ± 6.2 % of control group
- ALP activity (% of control group) ([1]; 1 × 10^−4 mg/ml, listed as genistein): 121 % of control group
- ALP activity (% of control group) ([1]; 1 × 10^−5 mg/ml): 113.5 ± 7.3 % of control group
- ALP activity (% of control group) ([1]; 1 × 10^−6 mg/ml): 103.8 ± 8.7 % of control group
- ALP activity (% of control group) ([1]; 1 × 10^−7 mg/ml): 109.3 ± 9.6 % of control group
- ALP activity (% of control group) ([1]; 1 × 10^−8 mg/ml): 101.5 ± 8.8 % of control group
- ALP activity (% of control group) ([1]; 1 × 10^−9 mg/ml): 106.1 ± 6.4 % of control group
- TBA (trabecular bone area) of tibia [4]: 47.65 ± 2.07 ×10^4 μm^2
- Change Rate (%) of TBA of tibia, of control group [4]: 137.62 ± 5.98%
- Change Rate (%) of TBA of tibia, of control group ([4]; listed as genistein): 138%
- MTT assay (% of control group) ([5]; 1 × 10^−2 mg/ml): 66.2 ± 2.8 % of control group
- MTT assay (% of control group) ([5]; 1 × 10^−2 mg/ml, listed as genistein): 66 % of control group
- MTT assay (% of control group) ([5]; 1 × 10^−3 mg/ml): 85.5 ± 1.1 % of control group
- MTT assay (% of control group) ([5]; 1 × 10^−3 mg/ml, listed as genistein): 86 % of control group
- MTT assay (% of control group) ([5]; 1 × 10^−4 mg/ml): 95.7 ± 0.7 % of control group
- MTT assay (% of control group) ([5]; 1 × 10^−5 mg/ml): 97.3 ± 1.6 % of control group
- MTT assay (% of control group) ([5]; 1 × 10^−6 mg/ml): 90.5 ± 0.9 % of control group
- MTT assay (% of control group) ([5]; 1 × 10^−6 mg/ml, listed as genistein): 90.5 % of control group
- MTT assay (% of control group) ([5]; 1 × 10^−7 mg/ml): 95.9 ± 1.6 % of control group
- MTT assay (% of control group) ([5]; 1 × 10^−8 mg/ml): 96.9 ± 2.7 % of control group
- MTT assay (% of control group) ([5]; 1 × 10^−9 mg/ml): 91.3 ± 0.6 % of control group
- MTT assay (% of control group) ([5]; 1 × 10^−9 mg/ml, listed as genistein): 91 % of control group
- TBA (trabecular bone area) of lumbars [6]: 86.58 ± 3.00 ×10^4 μm^2
- Change Rate (%) of TBA of lumbars, of control group [6]: 128.23 ± 4.45 %
- Change Rate (%) of TBA of lumbars, of control group ([6]; listed as genistein): 128%
